The structures appear in SMILES notation.

The first assay deals with T1, Recombinant human JAK1 catalytic domain (Homo sapiens, UniProt P23458).
T1 construct: Recombinant human JAK1 (catalytic domain, amino acids 866-1154; catalog number PV4774); purchased Invitrogen PV4774
T1 sequence (P23458 866-1154): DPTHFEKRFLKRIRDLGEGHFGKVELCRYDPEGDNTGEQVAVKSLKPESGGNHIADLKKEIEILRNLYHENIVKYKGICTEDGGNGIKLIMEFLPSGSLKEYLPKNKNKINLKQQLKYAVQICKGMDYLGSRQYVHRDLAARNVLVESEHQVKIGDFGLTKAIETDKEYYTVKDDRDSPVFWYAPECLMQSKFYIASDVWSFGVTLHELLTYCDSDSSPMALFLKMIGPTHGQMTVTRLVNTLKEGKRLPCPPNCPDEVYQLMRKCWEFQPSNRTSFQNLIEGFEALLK
The assay is described as follows: JAK1 inhibition assay (polyGT substrate / Ulight-JAK1 peptide assay). The assay is classed as biochemical. The settings on record: Comparative Compounds (Table VI). The procedure: Recombinant human JAK1 catalytic domain (amino acids 850-1154; catalog number 08-144) was purchased from Carna Biosciences. 10 ng of JAK1 is incubated with 12.5 μg polyGT substrate (Sigma catalog number P0275) in kinase reaction buffer (15 mM Tris-HCl pH 7.5, 1 mM DTT, 0.01% Tween-20, 10 mM MgCl2, 2 μM non-radioactive ATP, 0.25 ρCi ^33P-gamma-ATP (GE Healthcare, catalog number AH9968) final concentrations) with or without 5 μL containing test compound or vehicle (DMSO, 1% final concentration), in a total volume of 25 μL, in a polypropylene 96-well plate (Greiner, V-bottom). After 45 min at 30° C., reactions are stopped by adding of 25 μL/well of 150 mM phosphoric acid. All of the terminated kinase reaction is transferred to prewashed (75 mM phosphoric acid) 96 well filter plates (Perkin Elmer catalog number 6005177) using a cell harvester (Perkin Elmer). Plates are washed 6 times with 300 μL per well of a 75 mM phosphoric acid solution and the bottom of the plates is sealed. 40 μL/well of Microscint-20 is added, the top of the plates is sealed and readout is performed using the Topcount (Perkin Elmer). Kinase activity is calculated by subtracting counts per min (cpm) obtained in the presence of a positive control inhibitor (10 μM staurosporine) from cpm obtained in the presence of vehicle. The ability of a test compound to inhibit this activity is determined as:
[formula] • RFU test compound=RFU determined for sample with test compound present • RFU control=RFU determined for sample with positive control inhibitor • RFU vehicle=RFU determined in the presence of vehicle
Dose dilution series are prepared for the compounds enabling the testing of dose-response effects in the JAK1 assay and the calculation of the IC50 for each compound. Each compound is routinely tested at concentration of 20 μM followed by a 1/3 serial dilution, 8 points (20 μM-6.67 μM-2.22 μM-740 nM-247 nM-82 nM-27 nM-9 nM) in a final concentration of 1% DMSO. When potency of compound series increased, more dilutions are prepared and/or the top concentration was lowered (e.g. 5 μM, 1 μM).
Recombinant human JAK1 (catalytic domain, amino acids 866-1154; catalog number PV4774) was purchased from Invitrogen. 1 ng of JAK1 was incubated with 20 nM Ulight-JAK1 (tyr1023) peptide (Perkin Elmer catalog number TRF0121) in kinase reaction buffer (25 mM MOPS pH6.8, 0.01% Brij-35, 5 mM MgCl2, 2 mM DTT, 7 μM ATP) with or without 4 μL containing test compound or vehicle (DMSO, 1% final concentration), in a total volume of 20 μL, in a white 384 Opti plate (Perkin Elmer, catalog number 6007290). After 60 min at room temperature, reactions were stopped by adding 20 μL/well of detection mixture (1× detection buffer (Perkin Elmer, catalog number CR97-100C), 0.5 nM Europium-anti-phosphotyrosine (PT66) (Perkin Elmer, catalog number AD0068), 10 mM EDTA). Readout is performed using the Envision with excitation at 320 nm and measuring emission at 615 nm (Perkin Elmer). Kinase activity was calculated by subtracting relative fluorescence units (RFU) obtained in the presence of a positive control inhibitor (10 μM staurosporine) from RFU obtained in the presence of vehicle. The ability of a test compound to inhibit this activity was determined as: Percentage inhibition=((RFU determined for sample with test compound present−RFU determined for sample with positive control inhibitor) divided by (RFU determined in the presence of vehicle−RFU determined for sample with positive control inhibitor))*100.
Dose dilution series were prepared for the compounds enabling the testing of dose-response effects in the JAK1 assay and the calculation of the IC50 for the compound. Each compound is routinely tested at concentration of 20 μM followed by a 1/5 serial dilution, 10 points in a final concentration of 1% DMSO. When potency of compound series increases, more dilutions are prepared and/or the top concentration are lowered (e.g. 5 μM, 1 μM). […]
What is called IC50 is the concentration needed to halve the response being measured. Take `CN(c1cc2c(cn1)ncn2C)c1ccc(C#N)cc1F` [D, reference compound]: the IC50 was > 500 nM.

The assay is the same for the next values; noted with them: Illustrative Compounds of the invention (Table V).
With `CCc1cc(C(N)=O)ncc1N(C)c1cc(NC(=O)C2CC2)c2ncn(C)c2c1` [Cpd 24, 5-((4-(cyclopropanecarboxamido)-1-methyl-1H-benzo[d]imidazol-6-yl)(methyl)amino)-4-ethylpicolinamide], the IC50 is 0.1 to 50 nM.
`CCc1cc(C(N)=O)ncc1N(C)c1cc(NC(=O)[C@H]2C[C@H]2F)c2ncn(C)c2c1` [Cpd 25, 4-ethyl-5-((4-((1R,2R)-2-fluorocyclopropanecarboxamido)-1-methyl-1H-benzo[d]imidazol-6-yl)(methyl)amino)picolinamide]: the IC50 lay within 0.1 to 50 nM.
As to `Cc1cc(S(C)(=O)=O)ccc1N(C)c1cc(NC(=O)[C@H]2C[C@H]2F)c2ncn(C)c2c1` [Cpd 26, (1R,2R)-N-[6-(N,2-dimethyl-4-methylsulfonyl-anilino)-1-methyl-benzimidazol-4-yl]-2-fluoro-cyclopropanecarboxamide], the IC50 fell in the range of 0.1 to 50 nM.
Same read-out and setting: to `CCS(=O)(=O)c1ccc(N(C)c2cc(NC(=O)[C@H]3C[C@H]3F)c3ncn(C)c3c2)c(C)c1` [Cpd 27, (1R,2R)-N-[6-(4-ethylsulfonyl-N,2-dimethyl-anilino)-1-methyl-benzimidazol-4-yl]-2-fluoro-cyclopropanecarboxamide] belongs 0.1 to 50 nM; to `Cc1cc(C#N)ncc1Oc1cc(N)c2ncn(C)c2c1` [Cpd 28, 5-(7-amino-3-methyl-benzimidazol-5-yl)oxy-4-methyl-pyridine-2-carbonitrile], 50 to 100 nM.
For the compound `CCc1cc(S(C)(=O)=O)ncc1Oc1cc(NC(=O)C2CC2)c2ncn(C)c2c1` [Cpd 29, N-[6-[(4-ethyl-6-methylsulfonyl-3-pyridyl)oxy]-1-methyl-benzimidazol-4-yl]cyclopropanecarboxamide], the IC50 lay within 0.1 to 50 nM.
On the same count and under the same terms, to `Cc1cc(C(N)=O)ncc1Oc1cc(NC(=O)[C@H]2C[C@H]2F)c2ncn(C)c2c1` [Cpd 32, 5-[7-[[(1R,2R)-2-fluorocyclopropanecarbonyl]amino]-3-methyl-benzimidazol-5-yl]oxy-4-methyl-pyridine-2-carboxamide] belongs 50 to 100 nM; to `CNc1cc(Oc2cnc(C#N)cc2C)cc2c1ncn2C` [Cpd 34, 4-methyl-5-[3-methyl-7-(methylamino)benzimidazol-5-yl]oxy-pyridine-2-carbonitrile], 100 to 500 nM; to `Cc1cc(C#N)ncc1Oc1cc(N(C)C)c2ncn(C)c2c1` [Cpd 35, 5-[7-(dimethylamino)-3-methyl-benzimidazol-5-yl]oxy-4-methyl-pyridine-2-carbonitrile], > 500 nM.
For the compound `Cc1cc(C#N)ncc1Oc1cc(NC(=O)N2CC(O)C2)c2ncn(C)c2c1` [Cpd 36, N-[6-[(6-cyano-4-methyl-3-pyridyl)oxy]-1-methyl-benzimidazol-4-yl]-3-hydroxy-azetidine-1-carboxamide], the IC50 was > 500 nM.
Take `Cc1cc(C#N)ncc1Oc1cc(NC(=O)N2CCOCC2)c2ncn(C)c2c1` [Cpd 37, N-[6-[(6-cyano-4-methyl-3-pyridyl)oxy]-1-methyl-benzimidazol-4-yl]morpholine-4-carboxamide]: the IC50 was > 500 nM.
On to `Cc1cc(C#N)ncc1Oc1cc(NC(=O)NC(C)C)c2ncn(C)c2c1` [Cpd 38, 1-[6-[(6-cyano-4-methyl-3-pyridyl)oxy]-1-methyl-benzimidazol-4-yl]-3-isopropyl-urea], for which the IC50 was 0.1 to 50 nM.

Values taken from patent publication US10179771B2 (GALAPAGOS NV, priority 2014, dated 2019).
